Laboratory results reported in paper PMC10584170, “Machine learning-based phenotypic imaging to characterise the targetable biology of Plasmodium falciparum male gametocytes for the development of transmission-blocking antimalarials” (PLOS Pathogens, 2023).

Key:
HepG2 cells [1] = assay: HepG2 cytotoxicity counter-screen; settings: for Mean TOX: mean of the HepG2 TOX50 values; for DGFA Tox50 HepG2: HepG2 value reported with the DGFA screen
HepG2 cells [2] = settings: cited from earlier work
[3] = test system: P. berghei ookinete development; assay: P. berghei Ookinete Development Assay (PbODA); format: cell-based, Plasmodium berghei; settings: Mean TOX HepG2 over Pb ODA value; GREEN = >10-fold; RED = <10-fold
Text: Fig 1 The activity of TCAMS compound identified in the Pf DGFA screen. (A) 85 molecules were confirmed active in the Pf DGFA. 58 were previously identified in one or more transmission-blocking screens. […] No molecule was identified with >4.7-fold greater activity against female gametocytes. Abbreviations (IC50 = concentration giving 50% inhibition, PbODA = P. berghei Ookinete Development Assay, PfDGFA = P. falciparum Dual Gamete Formation Assay, PfFGAA = P. falciparum Female Gametocyte Activation Assay, PfGCT = P. falciparum Gametocyte Viability ATP Assay).

[4] = test system: P. falciparum female gametocytes; assay: P. falciparum Dual Gamete Formation Assay (PfDGFA), female readout (Pfs25-positive female gametes); format: cell-based, Plasmodium falciparum NF54; settings: for IC50: this study, read-out: Pf DGFA IC50 FEM
Summary of the method: (§1)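 NF54 mature gametocytes (d14), cpd 24 h 37°C hypoxic gas; trigger: xanthurenic acid ookinete medium + Cy3 anti-Pfs25, 4°C 4 min → 28°C 4 min. Male: exflagellation centres, brightfield x6. Female: Pfs25+ gametes, fluorescence, +24 h 28°C dark.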

[5] = test system: P. falciparum male gametocytes; assay: P. falciparum Dual Gamete Formation Assay (PfDGFA), male readout (exflagellation); format: cell-based, Plasmodium falciparum NF54; settings: for IC50: this study, read-out: Pf DGFA IC50 MALE
Summary of the method: as §1

SMILES	Mean TOX (HepG2 cells [1])	ODA TOX50 HepG2 (HepG2 cells [2])	Cytotox ratio Pb Ookinete [3]	Cytotox ratio Pf Female [4]	Cytotox ratio Pf Male [5]	IC50 [5]	IC50 [4]	DGFA Tox50 HepG2 (HepG2 cells [1])
CNC(=O)c1ccccc1Nc1nc(Nc2ccc(N3CCOCC3)cc2)ncc1Cl.Cl [TC28]	2.23 µM	3.631 µM	3489.3	0.223	12.4	180 nM	–	–
COc1ccc2nc(-c3cc(-c4ccc(NC(=O)C(C)C)cc4)cnc3N)[nH]c2c1 [TC32]	8.50 µM	8.61 µM	12253.3	0.85	19.8	430 nM	–	–
Cl.NC(=O)c1ccccc1Nc1nc(Nc2cccc(N3CCN(CCO)CC3)c2)ncc1Cl [TC33]	27.38 µM	41.687 µM	311828.0	2.7	58.3	470 nM	–	–
O=C(O)C(F)(F)F.O=c1[nH]ccc2nc(N[C@@H]3CCCNC3)nc(Nc3ccc(S(=O)(=O)N4CCOCC4)cc3)c12 [TC42]	33.80 µM	45.71 µM	23182.4	4.1	563.3	60 nM	8170 nM	–
CN1CCN(c2ccc(Nc3ncc(C#N)c(Nc4ccccc4C(N)=O)n3)cc2)CC1.Cl [TC49]	3.07 µM	2.427 µM	95106.6	0.335	102.3	30 nM	9170 nM	–
COc1ccc(Nc2ncc(OC)c(Nc3ccccc3C(N)=O)n2)cc1N1CCN(C)CC1.O=CO [TC59]	9.37 µM	13.49 µM	19018.5	1.2	52.0	180 nM	7910 nM	–
Cc1cc(C(=O)OCC(=O)Nc2c(C)n(C)n(-c3ccccc3)c2=O)c(C)n1-c1ccc(F)cc1 [TC63]	59.75 µM	19.5 µM	166949.3	41.8	31.4	1900 nM	1430 nM	100 µM
COc1ccc2nc(-c3cc(-c4ccc(NC(C)=O)cc4)cnc3N)[nH]c2c1 [TC69]	7.55 µM	12.02 µM	10513.6	0.755	14.0	540 nM	–	–
C#C[C@H]1O[C@@H](n2cnc3c(Nc4cc(Br)cc(C(F)(F)F)c4)ncnc32)[C@H](O)[C@@H]1O [TC70]	78.77 µM	57.54 µM	88432.3	7.9	262.6	300 nM	–	100 µM
COc1ccc(Nc2ncc(Cl)c(Nc3cccnc3C(N)=O)n2)cc1N1CCN(C)CC1.Cl [TC75]	7.10 µM	11.22 µM	11414.1	0.7	17.8	400 nM	–	–
